Source: US9644010B2, “LY6K epitope peptides for TH1 cells and vaccines containing the same” (ONCOTHERAPY SCIENCE, INC., priority 2012, dated 2017)

Test system: LY6K-A24 (177-186) SP-specific bulk CTLs
Assay: In vitro cross-presentation assay
Type: cell-based, human
Experimental: Induction of LY6K-A24 (177-186) SP-reactive CTLs from an HLA-A24^+ and HLA-DR15^+ HDL3 by stimulation with LY6K-A24 (177-186) SP was performed as described (Tomita Y, et al, Cancer Sci 2011; 102:71-8., Imai K, et al., Clin Cancer Res 2008; 14:6487-95.). Monocyte-derived DCs were generated from CD14^+ cells by in vitro culture, as described previously (Harao M, et al. Int J Cancer 2008; 123:2616-25.). Autologous immature DCs were kept alive or fixed for 3 min in 0.1% glutaraldehyde (Sigma-Aldrich), pulsed with LY6K-A24 (177-186) SP, LY6K (172-191)-LP, or control LP (16 micro-M each) for 3 h, and washed 3 times. OK432 (0.1 KE/mL) was added during and after the peptide pulse to induce the maturation of DCs. […] LY6K-A24 (177-186) SP-reactive bulk CTLs were added at a 2:1 ratio for 6 h in medium containing 10 micro g/mL brefeldin A (Sigma-Aldrich). IFN-gamma production by LY6K-A24 (177-186) SP-specific CTLs was measured by intracellular labeling. The cells were stained with a FITC-labeled anti-human IFN-gamma mAb (BioLegend) in combination with a PerCP-labeled anti-human CD8 mAb (BioLegend) and a PE-labeled LY6K-A24 (177-186) SP-specific tetramer.
The inventors assessed whether the LY6K (172-191) LP can induce expansion of LY6K-A24 (177-186) SP-specific bulk CTLs. LY6K-A24 (177-186) SP-specific bulk CTLs generated from purified CD8^+ T-cells of HLA-A24^+ HDL3 were restimulated with LY6K (172-191) LP-pulsed autologous DCs.

Q: What does the source list for KCCKIRYCNLEGPPINSSVF [LY6K (172-191)]?
A: population of LY6K-A24 (177-186) SP-specific tetramer+ CD8+ cells after stimulation with LP-pulsed DCs (bulk CTLs from HLA-A24+ HDL3, autologous DCs, day 7): significantly expanded; stimulation of LY6K-A24 (177-186) SP-specific CTLs by peptide-pulsed fixed DCs (intracellular IFN-gamma) (fixed DCs (0.1% glutaraldehyde) pulsed 3 h, 16 micro-M, CTLs from HDL3, 6 h): could not stimulate; stimulation of LY6K-A24 (177-186) SP-specific CTLs by peptide-pulsed unfixed DCs (intracellular IFN-gamma) (unfixed DCs pulsed 3 h, 16 micro-M, CTLs from HDL3, 6 h): induced a significant proportion of IFN-gamma secreting tetramer^+ CD8^+ T-cells
